Reference: patent US12209079B2 (GENERAL INCORPORATED ASSOCIATION PHARMA VALLEY PROJECT …, priority 2017, dated 2025)

Legend:
IDO in A431 cells = target: T1, IDO in A431 cells (Homo sapiens, UniProt P14902); test: IDO cell-based assay, kynurenine production in IFN-γ stimulated A431 cells; conditions: A-431, 24 h; final concentration of the compound 10 μM; rate relative to culture without compound
T1 construct: endogenous in cells; host or cells: A431 cells, IFN-γ stimulated
Method in brief: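 A431 cells were cultured 24 h, then preincubated 1 h with compound in medium containing 178 μM L-tryptophan, and stimulated with IFN-γ (diluted to 100 ng/mL before addition) for 24 h. Kynurenine was measured by p-dimethylbenzaldehyde absorbance at 460 nm, background-subtracted, and expressed as % production versus no-compound control.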

[1] = system: subcutaneous CT-26WT syngeneic graft of large intestine cancer; test: Drug efficacy test, combined use of IDO/TDO inhibitor and oxaliplatin, mice with subcutaneous CT-26WT syngeneic graft (Test Example 5); type: in vivo, mouse; conditions: 40 mg/kg oral twice a day in 0.5% methyl cellulose, combined with oxaliplatin 10 mg/kg i.v.; Balb/c mice; FIG. 4
Method: Drug Efficacy Test on Combined Use of IDO/TDO Inhibitor and Oxaliplatin Using Mice with a Subcutaneous CT-26WT Syngeneic Graft of Large Intestine Cancer
5×10^5 cells of syngeneic large intestine cancer cell line CT26WT were subcutaneously transplanted to each of 6-week-old female Balb/c mice. The mice were divided into groups each involving 6 individuals 10 days later within a tumor size range of 41-427 mm^3. The oral administration (solvent for oral administration and 40 mg/kg each of epacadostat and compounds 37, 31, 7, 15, 1, 50, 52, 76, 95, 33, 49, 2, 10, 36, 103, 38 and 29 were administered twice a day at a 5-hour interval from days 1 to 5 and days 8 to 12) and intravenous injection (5% glucose solution and 10 mg/kg oxaliplatin were administered once a day on days 1 and 8) of each agent were started. Then, the major axis and minor axis of subcutaneous tumor were measured three times a week using calipers, and a mean and standard error of the mean of the ratios of the calculated volumes to the volumes at the administration start day in each group were plotted. The calculation expression was Volume (mm^3)=[[…]×Length (mm)]/2. The agent for oral administration was suspended in 0.5% methyl cellulose as a solvent for oral administration. The results are shown in FIG. 4 (if a plurality of experiments were conducted for the same agent, the results were combined).
• with the solid line: the solvent for oral administration and the 5% glucose solution, ▪ with the solid line: compound 37 and oxaliplatin, ▴ with the solid line: epacadostat and oxaliplatin, X with the solid line: compound 31 and oxaliplatin, ∘ with the solid line: the solvent for oral administration and oxaliplatin, □ with the solid line: compound 7 and oxaliplatin, Δ with the solid line: compound 15 and oxaliplatin, X with the solid line: compound 1 and oxaliplatin, • with the broken line: compound 50 and oxaliplatin, ▪ with the broken line: compound 52 and oxaliplatin, ▴ with the broken line: compound 76 and oxaliplatin, X with the broken line: compound 95 and oxaliplatin, ∘ with the broken line: compound 33 and oxaliplatin, □ with the broken line: compound 49 and oxaliplatin, Δ with the broken line: compound 2 and oxaliplatin, + with the solid line: compound 10 and oxaliplatin, rectangle with the solid line: compound 36 and oxaliplatin, • with the dotted line: compound 103 and oxaliplatin, ▪ with the dotted line: compound 38 and oxaliplatin, and ▴ with the dotted line: compound 29 and oxaliplatin.

[2] = system: subcutaneous CT-26WT syngeneic graft of large intestine cancer; test: Drug efficacy test, combined use of compound 1, 15 or 29 and oxaliplatin, mice with subcutaneous CT-26WT syngeneic graft (Test Example 4); type: in vivo, mouse; conditions: 40 mg/kg oral twice a day, combined with oxaliplatin 10 mg/kg i.v.; Balb/c mice; FIG. 3
Method: Drug Efficacy Test on Combined Use of Compound 1, Compound 15 or Compound 29 and Oxaliplatin Using Mice with Subcutaneous CT-26WT Syngeneic Graft of Large Intestine Cancer
5×10^5 cells of syngeneic large intestine cancer cell line CT26WT were subcutaneously transplanted to each of 6-week-old female Balb/c mice. The mice were divided into 5 groups each involving 6 individuals 10 days later when the average tumor size was 139 mm^3. The oral administration (solvent for oral administration and 40 mg/kg each of compound 1, compound 15 and compound 29 were administered twice a day at a 5-hour interval from days 1 to 5 and days 8 to 12) and intravenous injection (5% glucose solution and 10 mg/kg oxaliplatin were administered once a day on days 1 and 8) of each agent were started. Then, the major axis and minor axis of subcutaneous tumor were measured three times a week using calipers, and a mean and standard error of the mean of the ratios of the calculated volumes to the volumes at the administration start day in each group were plotted. The calculation expression was Volume (mm^3)=[Width^2 (mm^2)×Length (mm)]/2. The solvent group, compound 1 and compound 15 were each dissolved in a solvent for oral administration of DMSO:PEG400:PBS=10:40:150, and compound 29 was dissolved in a solvent for oral administration of DMSO:PEG400:PBS=20:80:50.
∘: the solvent for oral administration and the 5% glucose solution, •: the solvent for oral administration and oxaliplatin, ▴: compound 1 and oxaliplatin, ▪: compound 15 and oxaliplatin, and x: compound 29 and oxaliplatin.

T1 sequence (P14902 whole entry): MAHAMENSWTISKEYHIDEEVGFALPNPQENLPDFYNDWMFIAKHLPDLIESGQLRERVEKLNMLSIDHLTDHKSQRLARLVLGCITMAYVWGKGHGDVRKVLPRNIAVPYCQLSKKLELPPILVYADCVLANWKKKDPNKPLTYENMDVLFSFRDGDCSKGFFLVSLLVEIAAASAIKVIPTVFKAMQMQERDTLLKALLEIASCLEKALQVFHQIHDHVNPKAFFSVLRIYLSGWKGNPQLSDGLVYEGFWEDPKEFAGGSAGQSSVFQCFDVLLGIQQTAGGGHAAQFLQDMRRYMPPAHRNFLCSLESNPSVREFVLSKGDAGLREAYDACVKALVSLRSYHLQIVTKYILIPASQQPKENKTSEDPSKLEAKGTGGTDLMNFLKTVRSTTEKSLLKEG

Row | SMILES | remaining activity at 10 µM (IDO in A431 cells) | tumor growth (ratio of tumor volume to start day) [1] | tumor growth (ratio of tumor volume to start day) [2]
1 | Br.Br.N=C(N)SCc1ccc(Br)cc1CSC(=N)N [Compound 10, (4-bromo-1,2-phenylene)bis(methylene) dicarbamimidothioate dihydrobromide] | -1% | can suppress tumor growth | –
2 | Br.Br.N=C(N)SCc1ccc(F)cc1CSC(=N)N [Compound 2, (4-fluoro-1,2-phenylene)bis(methylene) dicarbamimidothioate dihydrobromide] | 7% | can suppress tumor growth | –
3 | N/C(=N\c1ccc(Br)cc1)SCc1ccc(Br)cc1CS/C(N)=N/c1ccc(Br)cc1 [Compound 49, (4-Bromo-1,2-phenylene)bis(methylene) (E,E)-bis(N′-(4-bromophenyl)carbamimidothioate)] | 4% | can suppress tumor growth | –
4 | Br.Br.N/C(=N\c1ccc(F)cc1F)SCc1ccccc1CS/C(N)=N/c1ccc(F)cc1F [Compound 95, 1,2-Phenylenebis(methylene) (E,E)-bis(N-(2,4-difluorophenyl)carbamimidothioate)dihydrobromide] | 2% | can suppress tumor growth | –
5 | Br.Br.N=C(N)SCc1ccsc1CSC(=N)N [Compound 31, thiophene-2,3-diylbis(methylene) dicarbamimidothioate dihydrobromide] | 13% | can suppress tumor growth | –
6 | Br.Br.N=C(N)SCc1ccc(Cl)cc1CSC(=N)N [Compound 7, (4-chloro-1,2-phenylene)bis(methylene) dicarbamimidothioate dihydrobromide] | 0% | can suppress tumor growth | –
7 | Cl.Cl.N=C(N)SCc1ccccc1CSC(=N)N [Compound 1, 1,2-phenylenebis(methylene) dicarbamimidothioate dihydrochloride] | 11% | can suppress tumor growth | can suppress tumor growth
8 | Br.N#Cc1ccc(CNC(=O)c2cc(Br)ccc2CSC(=N)N)cc1 [Compound 103, 4-Bromo-2-((4-cyanobenzyl)carbamoyl)benzyl carbamimidothioate hydrobromide] | 3% | can suppress tumor growth | –
9 | Clc1cc(CSC2=NCN(CC3CCCCC3)CN2)c(CSC2=NCN(CC3CCCCC3)CN2)cc1Cl [Compound 50, 6,6′-(((4,5-Dichloro-1,2-phenylene)bis(methylene))bis(sulfanediyl))bis(3-(cyclohexylmethyl)-1,2,3,4-tetrahydro-1,3,5-triazine)] | 4% | can suppress tumor growth | –
10 | c1ccc(CSC2=NCN(CC3CCCCC3)CN2)c(CSC2=NCN(CC3CCCCC3)CN2)c1 [Compound 29, 1,2-bis(((5-(cyclohexylmethyl)-1,4,5,6-tetrahydro-1,3,5-triazin-2-yl)thio)methyl)benzene] | 10% | can suppress tumor growth | can suppress tumor growth
11 | Clc1cc(CSC2=NCN(CCc3ccccc3)CN2)c(CSC2=NCN(CCc3ccccc3)CN2)cc1Cl [Compound 37, 6,6′-(((4,5-Dichloro-1,2-phenylene)bis(methylene))bis(sulfanediyl))bis(3-phenethyl-1,2,3,4-tetrahydro-1,3,5-triazine)] | 1% | can suppress tumor growth | –
12 | Br.Br.N=C(N)SCc1cscc1CSC(=N)N [Compound 15, thiophene-3,4-diylbis(methylene) dicarbamimidothioate dihydrobromide] | 12% | can suppress tumor growth | can suppress tumor growth
13 | Brc1ccc(CSC2=NCN(CC3CCCCC3)CN2)c(CSC2=NCN(CC3CCCCC3)CN2)c1 [Compound 52, 6,6′-(((4-Bromo-1,2-phenylene)bis(methylene))bis(sulfanediyl))bis(3-(cyclohexylmethyl)-1,2,3,4-tetrahydro-1,3,5-triazine)] | 1% | can suppress tumor growth | –
14 | Br.N#Cc1ccc(CNC(=O)c2ccc(Br)cc2CSC(=N)N)cc1 [Compound 76, 5-Bromo-2-((4-cyanobenzyl)carbamoyl)benzyl carbamimidothioate hydrobromide] | 82% | can suppress tumor growth | –
15 | Cl.Cl.c1ccc(CCN2CN=C(SCc3cscc3CSC3=NCN(CCc4ccccc4)CN3)NC2)cc1 [Compound 33, 3,4-Bis{[(5-phenethyl-1,4,5,6-tetrahydro-1,3,5-triazin-2-yl)thio]methyl}thiophene dihydrochloride] | 3% | can suppress tumor growth | –
